Source: patent publication US9828350B2, “5,6-dihydro-2H-[1,4]oxazin-3-yl-amine derivatives useful as inhibitors of beta-secretase (BACE)” (Janssen Pharmaceutica NV, priority 2010, dated 2017)

How the values were obtained:
Abeta 1-42 = test: Cellular αLisa assay in SKNBE2 cells, Abeta 1-42; type: cell-based, human; settings: incubated for 18 hours; for IC50: Homo sapiens, SKNBE2, 18 h, read-out: Cellular αLisa assay in SKNBE2 cells Abeta 42 pIC50 (converted)
Protocol: (§1) Cellular αLisa Assay in SKNBE2 Cells
(§2) In two αLisa assays the levels of Abeta total and Abeta 1-42 produced and secreted into the medium of human neuroblastoma SKNBE2 cells are quantified. The assay is based on the human neuroblastoma SKNBE2 expressing the wild type Amyloid Precursor Protein (hAPP695). The compounds are diluted and added to these cells, incubated for 18 hours and then measurements of Abeta 1-42 and Abeta total are taken. Abeta total and Abeta 1-42 are measured by sandwich αLisa. αLisa is a sandwich assay using biotinylated antibody AbN/25 attached to streptavidin coated beads and antibody Ab4G8 or cAb42/26 conjugated acceptor beads for the detection of Abeta total and Abeta 1-42 respectively. In the presence of Abeta total or Abeta 1-42, the beads come into close proximity. The excitation of the donor beads provokes the release of singlet oxygen molecules that trigger a cascade of energy transfer in the acceptor beads, resulting in light emission. Light emission is measured after 1 hour incubation (excitation at […] and emission at 615 nm).

Abeta total = test: Cellular αLisa assay in SKNBE2 cells, Abeta total; type: cell-based, human; settings: incubated for 18 hours; for IC50: Homo sapiens, SKNBE2, 18 h, read-out: Cellular αLisa assay in SKNBE2 cells Abetatotal pIC50 (converted)
Protocol: as §1, §2

[1] = target: recombinant BACE1 protein (Homo sapiens, UniProt P56817); test: Biochemical FRET based assay; settings: recombinant BACE1 1 μg/ml, 120 minutes at room temperature, pH 5.0; for IC50: read-out: Biochemical FRET based assay pIC50 (converted)
Sequence of recombinant BACE1 protein (P56817 46-501): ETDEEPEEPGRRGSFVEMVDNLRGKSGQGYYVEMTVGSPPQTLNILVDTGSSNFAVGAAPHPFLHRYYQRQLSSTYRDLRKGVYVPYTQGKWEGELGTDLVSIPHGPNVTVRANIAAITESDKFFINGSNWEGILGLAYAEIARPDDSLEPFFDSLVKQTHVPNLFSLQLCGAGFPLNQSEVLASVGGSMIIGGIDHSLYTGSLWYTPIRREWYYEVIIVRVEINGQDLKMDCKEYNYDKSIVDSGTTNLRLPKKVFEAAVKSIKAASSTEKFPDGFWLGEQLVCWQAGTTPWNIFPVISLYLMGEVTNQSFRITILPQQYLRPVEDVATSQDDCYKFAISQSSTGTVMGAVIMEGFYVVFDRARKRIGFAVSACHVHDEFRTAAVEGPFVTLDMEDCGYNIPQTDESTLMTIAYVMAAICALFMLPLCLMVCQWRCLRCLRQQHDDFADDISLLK
Description: Biochemical FRET Based Assay
This assay is a Fluorescence Resonance Energy Transfer Assay (FRET) based assay. The substrate for this assay is an APP derived 13 amino acids peptide that contains the ‘Swedish’ Lys-Met/Asn-Leu mutation of the amyloid precursor protein (APP) beta-secretase cleavage site. This substrate also contains two fluorophores: (7-methoxycoumarin-4-yl) acetic acid (Mca) is a fluorescent donor with excitation wavelength at 320 nm and emission at 405 nm and 2,4-Dinitrophenyl (Dnp) is a proprietary quencher acceptor. […] Upon cleavage by BACE1, the fluorophore Mca is separated from the quenching group Dnp, restoring the full fluorescence yield of the donor. The increase in fluorescence is linearly related to the rate of proteolysis.
Briefly in a 384-well format recombinant BACE1 protein in a final concentration of 1 μg/ml is incubated for 120 minutes at room temperature with […] substrate in incubation buffer (40 mM Citrate buffer pH 5.0, 0.04% PEG, 4% DMSO) in the absence or presence of compound. Next the amount of proteolysis is directly measured by fluorescence measurement at T=0 and T=120 (excitation at 320 nm and emission at 405 nm). Results are expressed in RFU (Relative Fluorescence Units), as difference between T120 and TO.

Compound	IC50 (Abeta 1-42)	IC50 (Abeta total)	IC50 [1]	Cellular αLisa assay in SKNBE2 cells Abeta 42 pIC50 (Abeta 1-42)	Cellular αLisa assay in SKNBE2 cells Abetatotal pIC50 (Abeta total)	Biochemical FRET based assay pIC50 [1]
CC1(c2cccc(NC(=O)c3ccc(Cl)cn3)c2)COC(F)(C(F)(F)F)C(N)=N1 (single isomer, unassigned) [Compound 157]	–	–	–	<5	<5	<4.52
CC1(c2cc(-c3cncnc3)ccc2F)N=C(N)COC1(F)C(F)(F)F (single isomer, unassigned) [Compound 111]	437 nM	490 nM	1480 nM	–	–	–
CC1(c2cc(NC(=O)c3ncc(Cl)cc3Cl)ccc2F)N=C(N)COC1F (stereo not drawn) [Compound 78]	11.7 nM	8.51 nM	55 nM	–	–	–
Cc1cc(Cl)cnc1C(=O)Nc1cccc([C@@]2(C3CC3)N=C(N)CO[C@@H]2F)c1 [Compound 297]	19.1 nM	17.4 nM	38.9 nM	–	–	–
CC1(c2cccc(NC(=O)c3ccc(Cl)cn3)c2)COC(F)(C(F)(F)F)C(N)=N1 (single isomer, unassigned) [Compound 15, (R*,R*)—N-{3-[5-amino-6-fluoro-3-methyl-6-(trifluoromethyl)-3,6-dihydro-2H-1,4-oxazin-3-yl]phenyl}-5-chloropyridine-2-carboxamide]	490 nM	3090 nM	2750 nM	–	–	–
CC1(c2cc(-c3cncnc3)ccc2F)N=C(N)COC1C(F)(F)F (single isomer, unassigned) [Compound 238]	–	–	832 nM	6.65	6.66	–
C[C@H]1OC[C@@](C)(c2cccc(NC(=O)c3ccc(Cl)cn3)c2)N=C1N (racemic) [Compound 151, cis-rac-N-[3-(5-Amino-3,6-dimethyl-3,6-dihydro-2H-1,4-oxazin-3-yl)phenyl]-5-chloropyridine-2-carboxamide]	–	–	–	7.8	7.83	6.4
N#Cc1cncc(-c2cccc([C@@]3(C4CC4)N=C(N)CO[C@H]3C(F)(F)F)c2)c1 [Compound 253, (5R,6R)-5-{3-[5-amino-3-cyclopropyl-2-(trifluoromethyl)-3,6-dihydro-2H-1,4-oxazin-3-yl]phenyl}pyridine-3-carbonitrile]	49 nM	50.1 nM	155 nM	–	–	–
CC1(c2cc(NC(=O)c3ccc(Cl)s3)ccc2F)COCC(N)=N1 (stereo not drawn) [Compound 29]	–	–	–	6.67	6.67	6.11
C[C@]1(c2cccc(NC(=O)c3ncc(C#N)cc3Cl)c2)N=C(N)CO[C@]1(F)C(F)(F)F [Compound 245]	6.61 nM	5.89 nM	21.9 nM	–	–	–
CCC1(c2cc(NC(=O)c3cnc(OC)cn3)ccc2F)N=C(N)COC1F (stereo not drawn) [Compound 282]	–	–	891 nM	6.56	6.65	–
C[C@]1(c2cc(-c3cncnc3)c(F)cc2F)COCC(N)=N1 [Compound 155]	–	–	–	<5	<5	<4.52
CCC1(c2cc(NC(=O)c3cnc(OC)cn3)ccc2F)N=C(N)COC1C(F)(F)F (stereo not drawn) [Compound 285]	14.8 nM	15.8 nM	100 nM	–	–	–
COc1cncc(-c2cccc([C@@]3(C)CO[C@@H](C)C(N)=N3)c2)c1 (racemic) [Compound 19, cis-rac-5-[3-(5-methoxypyridin-3-yl)phenyl]-2,5-dimethyl-5,6-dihydro-2H-1,4-oxazin-3-amine]	–	–	–	6.29	6.352	5.38
N#Cc1cncc(-c2ccc(F)c([C@@]3(C4CC4)N=C(N)CO[C@H]3F)c2)c1 [Compound 223]	> 10000 nM	> 10000 nM	24500 nM	–	–	–
COc1cnc(C(=O)Nc2cccc(C3(C)COC(F)(C(F)(F)F)C(N)=N3)c2)cn1 (single isomer, unassigned) [Compound 69]	–	–	5130 nM	5.13	<5	–
COc1cccc(-c2cc([C@]3(C)COCC(N)=N3)c(F)cc2F)n1.Cl [Compound 145]	–	–	–	5.45	5.55	4.67

Other lines, results leading:

IC50 (Abeta 1-42)	IC50 (Abeta total)	IC50 [1]	Cellular αLisa assay in SKNBE2 cells Abeta 42 pIC50 (Abeta 1-42)	Cellular αLisa assay in SKNBE2 cells Abetatotal pIC50 (Abeta total)	Biochemical FRET based assay pIC50 [1]	Compound
120 nM	102 nM	316 nM	–	–	–	C[C@]1(c2cccc(NC(=O)c3ncc(C#N)cc3Cl)c2)N=C(N)CO[C@@]1(F)C(F)(F)F [Compound 246]
–	–	–	5.72	5.75	4.91	COc1ccc(-c2cc(C3(C)COCC(N)=N3)c(F)cc2F)cc1 (stereo not drawn) [Compound 33]
–	–	–	6.72	6.74	5.67	CC1(c2cc(NC(=O)c3ccc(C(F)(F)F)nn3)ccc2F)COCC(N)=N1 (stereo not drawn) [Compound 26]
58.9 nM	57.5 nM	182 nM	–	–	–	N#Cc1ccc(C(=O)Nc2cccc([C@@]3(C4CC4)N=C(N)CO[C@H]3F)c2)nc1 [Compound 280]
–	–	15100 nM	5.47	5.51	–	COc1cncc(-c2cccc(C3(C)N=C(N)COC3F)c2)c1 (single isomer, unassigned) [Compound 92]
–	–	–	6.51	6.52	6.3	N#Cc1ccc(C(=O)Nc2ccc(F)c(C3(C4CC4)N=C(N)COC3F)c2)nc1 (stereo not drawn) [Compound 215]
–	–	15800 nM	5.55	5.47	–	CC1(c2cccc(-c3cncc(C#N)c3)c2)N=C(N)COC1C(F)(F)F (single isomer, unassigned) [Compound 205]
–	–	2000 nM	6.08	6.13	–	Cc1ccc(C(=O)Nc2cccc(C3(C)N=C(N)COC3(F)C(F)(F)F)c2)nc1 (single isomer, unassigned) [Compound 194]
–	–	–	6.2	6.33	4.84	Cc1cncc(-c2cccc(C3(C)COCC(N)=N3)c2)c1 (racemic) [Compound 11]
–	–	> 30200 nM	<5	<5	–	CC1(c2cccc(-c3cncnc3)c2)N=C(N)COC1(F)C(F)(F)F (single isomer, unassigned) [Compound 140]
–	–	74.1 nM	7.19	7.23	–	Cc1ccc(C(=O)Nc2cccc(C3(C)N=C(N)COC3(F)C(F)(F)F)c2)nc1 (single isomer, unassigned) [Compound 193]
–	–	25.7 nM	8.18	8.21	–	CC1(c2cc(NC(=O)c3ncc(Cl)cc3F)ccc2F)N=C(N)COC1F (single isomer, unassigned) [Compound 133]
–	–	–	8.39	8.35	6.91	C[C@@]1(c2cc(NC(=O)c3ccc(C(F)(F)F)cn3)ccc2F)COCC(N)=N1 [Compound 38]
–	–	3470 nM	6.33	6.24	–	CC1(c2cccc(-c3cncc(C#N)c3)c2)N=C(N)COC1C(F)(F)F (single isomer, unassigned) [Compound 207]
–	–	–	6.43	6.48	5.73	CC1(c2cc(-c3cc(Cl)cc(Cl)c3)ccn2)COCC(N)=N1 (racemic) [Compound 121]
347 nM	316 nM	91.2 nM	–	–	–	NC1=N[C@@](c2cc(NC(=O)c3cnc(OCC(F)(F)F)cn3)ccc2F)(C2CC2)[C@@H](F)OC1 [Compound 264]
